# Data taken from patent US8853193B2, “Thienopyrimidines containing a substituted alkyl group for pharmaceutical compositions” (Boehringer Ingelheim International GmbH, priority 2010, dated 2014).
# Key:
# [1] = system: Mnk2 (Mnk2a or Mnk2b) or Mnk1; conditions: cells transfected with Mnk2 (Mnk2a or Mnk2b) or Mnk1; cited from earlier work
# human Mnk2a = human Mnk2a (Homo sapiens (Human), UniProt Q9HBH9); assay: Mnk2a in vitro kinase assay (indirect competitive fluorescence polarization); type: biochemical; conditions: pre-activated GST-Mnk2a 2.5 nM, 20 μM ATP, 30 μM substrate peptide; read-out: MNK2 IC50
# human Mnk2a, sequence (Q9HBH9 whole entry): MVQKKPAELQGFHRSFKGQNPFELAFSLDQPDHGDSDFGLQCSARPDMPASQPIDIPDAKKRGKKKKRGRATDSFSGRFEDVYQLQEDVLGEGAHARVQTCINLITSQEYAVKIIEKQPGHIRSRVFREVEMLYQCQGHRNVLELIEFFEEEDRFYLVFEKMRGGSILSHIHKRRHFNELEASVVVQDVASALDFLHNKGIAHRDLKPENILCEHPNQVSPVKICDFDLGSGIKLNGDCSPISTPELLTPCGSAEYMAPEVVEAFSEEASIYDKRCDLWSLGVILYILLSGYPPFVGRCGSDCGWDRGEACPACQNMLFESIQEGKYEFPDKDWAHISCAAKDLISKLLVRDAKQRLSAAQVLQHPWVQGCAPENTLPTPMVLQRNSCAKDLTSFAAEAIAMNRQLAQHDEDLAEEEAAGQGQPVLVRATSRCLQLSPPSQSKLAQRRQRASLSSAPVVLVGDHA
# Method in brief: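 GST-tagged human Mnk2a expressed in E. coli and glutathione-purified, then activated at 2.5 μM with 150 nM pre-activated NHis-ERK2 and 50 μM ATP in HEPES/KOH pH 7.4, MgCl2, DTT, Brij 78 for 45 min at 30 °C. Phospho-peptide product read by indirect competitive fluorescence polarization against fluorophore-labelled phospho-peptide bound to phospho-specific antibody.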
Structure (SMILES),reduction of phosphorylated eIF4E [1],IC50 (human Mnk2a)
Nc1ncnc2n[nH]c(Nc3ccc(F)cc3)c12 [CGP57380],strong reduction of phosphorylated eIF4E,–
Cc1c(C(=O)NCCCN(C)C)sc2ncnc(Nc3ccc(F)cc3OC(C)C#N)c12 (centres unmarked) [Compound 63],–,0.017 µM
